Assay results from BindingDB's records for doi:10.7270/Q2VT1QQ4 (Burnham Center For Chemical Genomics, 2012).

Target: T1, Xylosyl- and glucuronyltransferase LARGE1 (Homo sapiens, UniProt O95461)
T1 sequence (O95461 whole entry): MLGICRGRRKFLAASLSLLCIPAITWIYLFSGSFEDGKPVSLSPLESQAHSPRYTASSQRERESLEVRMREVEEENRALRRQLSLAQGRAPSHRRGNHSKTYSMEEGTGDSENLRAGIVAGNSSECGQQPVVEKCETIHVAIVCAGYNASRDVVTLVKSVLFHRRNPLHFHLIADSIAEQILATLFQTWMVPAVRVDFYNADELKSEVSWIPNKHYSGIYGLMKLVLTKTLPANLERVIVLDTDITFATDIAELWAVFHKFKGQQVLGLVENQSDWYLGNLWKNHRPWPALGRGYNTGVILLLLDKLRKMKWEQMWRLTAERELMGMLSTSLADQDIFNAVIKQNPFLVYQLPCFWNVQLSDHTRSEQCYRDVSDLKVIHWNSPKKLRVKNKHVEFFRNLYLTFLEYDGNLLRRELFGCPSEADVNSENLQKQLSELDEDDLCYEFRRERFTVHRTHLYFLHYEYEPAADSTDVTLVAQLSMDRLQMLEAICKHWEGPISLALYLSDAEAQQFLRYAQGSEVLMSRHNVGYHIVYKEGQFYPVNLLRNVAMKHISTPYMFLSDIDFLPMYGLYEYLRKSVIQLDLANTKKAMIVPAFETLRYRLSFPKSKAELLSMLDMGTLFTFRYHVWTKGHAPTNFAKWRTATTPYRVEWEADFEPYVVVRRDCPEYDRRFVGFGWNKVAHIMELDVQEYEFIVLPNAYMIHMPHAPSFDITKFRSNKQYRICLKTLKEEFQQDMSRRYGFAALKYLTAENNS

- EC50: 4.97 µM
SMILES: Oc1c(Cl)c(N=Cc2ccco2)c(O)c2ccccc12 [2-chloranyl-3-(furan-2-ylmethylamino)naphthalene-1,4-dione]
